Reference: ChEMBL document CHEMBL4414613, “Antibacterial 5α-Spirostane Saponins from the Fruit of Cordyline manners-suttoniae” (J Nat Prod, 2019)
pIC50: −log10 of the molar value. Converted amounts (≈) assume the structure as drawn. The source made the active and inactive calls. The rule behind the calls is not given here.

How the values were obtained:
Enterococcus faecium [1] = assay: Antibacterial activity against Enterococcus faecium C15 incubated for 24 hrs by microdilution assay; assay type: functional
[2] = system: Enterobacter cloacae subsp. cloacae; assay: Antibacterial activity against Enterobacter cloacae ATCC 13047 at 90 uM incubated for 24 hrs by microdilution assay; assay type: functional
Pseudomonas aeruginosa [3] = assay: Antibacterial activity against Pseudomonas aeruginosa ATCC 10145 at 90 uM incubated for 24 hrs by microdilution assay; assay type: functional, organism-based
Klebsiella pneumoniae [4] = assay: Bactericidal activity against Klebsiella pneumoniae ATCC 13883 at 90 uM incubated for 24 hrs by microdilution assay; assay type: functional, organism-based
HaCaT [5] = assay: Cytotoxicity against human HaCaT cells assessed as reduction in cell viability incubated for 4 days by CellTiter 96 aqueous one solution assay; assay type: cell-based; conditions: 96 h
Pseudomonas aeruginosa [6] = assay: Bactericidal activity against Pseudomonas aeruginosa ATCC 49189 at 90 uM incubated for 24 hrs by microdilution assay; assay type: functional, organism-based
Klebsiella aerogenes [7] = assay: Bactericidal activity against Enterobacter aerogenes ATCC 13048 at 90 uM incubated for 24 hrs by microdilution assay; assay type: functional
NHDF [8] = assay: Cytotoxicity against human HDF cells assessed as reduction in cell viability incubated for 7 days by CellTiter 96 aqueous one solution assay; assay type: functional, cell-based; conditions: 168 h
Staphylococcus aureus [9] = assay: Antibacterial activity against Staphylococcus aureus ATCC 25923 incubated for 24 hrs by microdilution assay; assay type: functional
[10] = system: Enterobacter cloacae subsp. cloacae; assay: Bactericidal activity against Enterobacter cloacae ATCC 13047 at 90 uM incubated for 24 hrs by microdilution assay; assay type: functional
Acinetobacter baumannii [11] = assay: Antibacterial activity against Acinetobacter baumannii ATCC 19606 at 90 uM incubated for 24 hrs by microdilution assay; assay type: functional, organism-based; conditions: ATCC 19606 = CIP 70.34 = JCM 6841
Enterococcus faecium [12] = assay: Bactericidal activity against Enterococcus faecium C15 incubated for 24 hrs by microdilution assay; assay type: functional; conditions: C15, 24 h
Acinetobacter baumannii [13] = assay: Bactericidal activity against Acinetobacter baumannii ATCC 17978 at 90 uM incubated for 24 hrs by microdilution assay; assay type: functional, organism-based
Staphylococcus aureus [14] = assay: Antibacterial activity against Staphylococcus aureus ATCC 29247 incubated for 24 hrs by microdilution assay; assay type: functional
Enterococcus faecium [15] = assay: Antibacterial activity against Enterococcus faecium ATCC 35667 incubated for 24 hrs by microdilution assay; assay type: functional
Staphylococcus aureus [16] = assay: Bactericidal activity against Staphylococcus aureus ATCC 29247 at 90 uM incubated for 24 hrs by microdilution assay; assay type: functional, organism-based
Acinetobacter baumannii [17] = assay: Antibacterial activity against Acinetobacter baumannii ATCC 17978 at 90 uM incubated for 24 hrs by microdilution assay; assay type: functional, organism-based
Enterococcus faecium [18] = assay: Bactericidal activity against Enterococcus faecium ATCC 35667 incubated for 24 hrs by microdilution assay; assay type: functional; conditions: ATCC 35667, 24 h
[19] = Selectivity ratio of IC50 for human HaCaT cells to IC50 for human HDF cells by CellTiter 96 aqueous one solution assay
Klebsiella pneumoniae [20] = assay: Bactericidal activity against Klebsiella pneumoniae ATCC 12657 at 90 uM incubated for 24 hrs by microdilution assay; assay type: functional, organism-based
Pseudomonas aeruginosa [21] = assay: Antibacterial activity against Pseudomonas aeruginosa ATCC 49189 at 90 uM incubated for 24 hrs by microdilution assay; assay type: functional, organism-based
Acinetobacter baumannii [22] = assay: Bactericidal activity against Acinetobacter baumannii ATCC 19606 at 90 uM incubated for 24 hrs by microdilution assay; assay type: functional, organism-based; conditions: ATCC 19606 = CIP 70.34 = JCM 6841
Klebsiella pneumoniae [23] = assay: Antibacterial activity against Klebsiella pneumoniae ATCC 12657 at 90 uM incubated for 24 hrs by microdilution assay; assay type: functional, organism-based
Klebsiella pneumoniae [24] = assay: Antibacterial activity against Klebsiella pneumoniae ATCC 13883 at 90 uM incubated for 24 hrs by microdilution assay; assay type: functional, organism-based
Staphylococcus aureus [25] = assay: Bactericidal activity against Staphylococcus aureus ATCC 25923 at 90 uM incubated for 24 hrs by microdilution assay; assay type: functional, organism-based
Klebsiella aerogenes [26] = assay: Antibacterial activity against Enterobacter aerogenes ATCC 13048 at 90 uM incubated for 24 hrs by microdilution assay; assay type: functional
Pseudomonas aeruginosa [27] = assay: Bactericidal activity against Pseudomonas aeruginosa ATCC 10145 at 90 uM incubated for 24 hrs by microdilution assay; assay type: functional, organism-based
Enterococcus faecium [28] = assay: Bactericidal activity against Enterococcus faecium C15 at 90 uM incubated for 24 hrs by microdilution assay; assay type: functional, organism-based
Enterococcus faecium [29] = assay: Antibacterial activity against Enterococcus faecium ATCC 35667 at 90 uM incubated for 24 hrs by microdilution assay; assay type: functional, organism-based
HaCaT [30] = assay: Cytotoxicity against human HaCaT cells assessed as reduction in cell viability at 100 uM incubated for 4 days by CellTiter 96 aqueous one solution assay; assay type: cell-based; conditions: 96 h
NHDF [31] = assay: Cytotoxicity against human HDF cells assessed as reduction in cell viability at 100 uM incubated for 7 days by CellTiter 96 aqueous one solution assay; assay type: functional, cell-based
Staphylococcus aureus [32] = assay: Antibacterial activity against Staphylococcus aureus ATCC 29247 at 90 uM incubated for 24 hrs by microdilution assay; assay type: functional, organism-based
Enterococcus faecium [33] = assay: Antibacterial activity against Enterococcus faecium C15 at 90 uM incubated for 24 hrs by microdilution assay; assay type: functional, organism-based
Staphylococcus aureus [34] = assay: Antibacterial activity against Staphylococcus aureus ATCC 25923 at 90 uM incubated for 24 hrs by microdilution assay; assay type: functional, organism-based
Enterococcus faecium [35] = assay: Bactericidal activity against Enterococcus faecium ATCC 35667 at 90 uM incubated for 24 hrs by microdilution assay; assay type: functional, organism-based

| SMILES | MIC75 (Enterococcus faecium [1]) | Activity [2] | Activity (Pseudomonas aeruginosa [3]) | Activity (Klebsiella pneumoniae [4]) | Activity (Pseudomonas aeruginosa [6]) | Activity (Klebsiella aerogenes [7]) | Activity [10] | Activity (Acinetobacter baumannii [11]) | Activity (Acinetobacter baumannii [13]) | Activity (Staphylococcus aureus [16]) | Activity (Acinetobacter baumannii [17]) | Ratio IC50 [19] | Activity (Klebsiella pneumoniae [20]) | Activity (Pseudomonas aeruginosa [21]) | Activity (Acinetobacter baumannii [22]) | Activity (Klebsiella pneumoniae [23]) | Activity (Klebsiella pneumoniae [24]) | Activity (Staphylococcus aureus [25]) | Activity (Klebsiella aerogenes [26]) | Activity (Pseudomonas aeruginosa [27]) | further results |
| --- | --- | --- | --- | --- | --- | --- | --- | --- | --- | --- | --- | --- | --- | --- | --- | --- | --- | --- | --- | --- | --- |
| C=C1CC[C@]2(OC1)O[C@H]1C[C@H]3[C@@H]4CC[C@H]5C[C@H](O)C[C@@H](O[C@@H]6O[C@H](C)[C@H](O)[C@H](O)[C@H]6O)[C@]5(C)[C@H]4CC[C@]3(C)[C@H]1[C@@H]2C | 21.7 µM (≈ 12.5 µg/mL) | inactive | inactive | inactive | inactive | inactive | inactive | inactive | inactive | inactive | inactive | 3 - 11 | inactive | inactive | inactive | inactive | inactive | inactive | inactive | inactive | pIC50 (HaCaT [5]): 4.41; pIC50 (NHDF [8]): 5.08; MIC75 (Staphylococcus aureus [9]): 21.7 µM (≈ 12.5 µg/mL); MBC (Enterococcus faecium [12]): 86.4 µM (≈ 49.8 µg/mL); MIC75 (Staphylococcus aureus [14]): 21.7 µM (≈ 12.5 µg/mL); MIC75 (Enterococcus faecium [15]): 43.3 µM (≈ 25 µg/mL); MBC (Enterococcus faecium [18]): 86.4 µM (≈ 49.8 µg/mL) |
| C[C@@H]1CC[C@]2(OC1)O[C@H]1C[C@H]3[C@@H]4CC[C@H]5C[C@H](O)C[C@@H](O[C@@H]6O[C@H](C)[C@H](O)[C@H](O)[C@H]6O)[C@]5(C)[C@H]4CC[C@]3(C)[C@H]1[C@@H]2C | 43.2 µM (≈ 25 µg/mL) | inactive | inactive | inactive | inactive | inactive | inactive | inactive | inactive | inactive | inactive | 3 - 11 | inactive | inactive | inactive | inactive | inactive | inactive | inactive | inactive | pIC50 (HaCaT [5]): 4.44; pIC50 (NHDF [8]): 5.12; MIC75 (Staphylococcus aureus [9]): 43.2 µM (≈ 25 µg/mL); MBC (Enterococcus faecium [12]): 86.4 µM (≈ 50 µg/mL); MIC75 (Staphylococcus aureus [14]): 43.2 µM (≈ 25 µg/mL); MIC75 (Enterococcus faecium [15]): 43.2 µM (≈ 25 µg/mL); MBC (Enterococcus faecium [18]): 86.4 µM (≈ 50 µg/mL) |
| C[C@@H]1CC[C@]2(OC1)O[C@H]1C[C@H]3[C@@H]4CC[C@H]5C[C@@H](O)C[C@@H](O[C@@H]6OC[C@H](O)[C@H](O)[C@H]6O)[C@]5(C)[C@H]4CC[C@]3(C)[C@H]1[C@@H]2C | – | inactive | inactive | inactive | inactive | inactive | inactive | inactive | inactive | inactive | inactive | 3 - 11 | inactive | inactive | inactive | inactive | inactive | inactive | inactive | inactive | Activity (Enterococcus faecium [28]): inactive; Activity (Enterococcus faecium [29]): inactive; Activity (HaCaT [30]): Not Active; Activity (NHDF [31]): inactive; Activity (Staphylococcus aureus [32]): inactive; Activity (Enterococcus faecium [33]): inactive; Activity (Staphylococcus aureus [34]): inactive; Activity (Enterococcus faecium [35]): inactive |
| C=C1CC[C@]2(OC1)O[C@H]1C[C@H]3[C@@H]4CC[C@H]5C[C@@H](O)C[C@@H](O[C@@H]6OC[C@H](O)[C@H](O)[C@H]6O)[C@]5(C)[C@H]4CC[C@]3(C)[C@H]1[C@@H]2C | – | inactive | inactive | inactive | inactive | inactive | inactive | inactive | inactive | inactive | inactive | 3 - 11 | inactive | inactive | inactive | inactive | inactive | inactive | inactive | inactive | Activity (Enterococcus faecium [28]): inactive; Activity (Enterococcus faecium [29]): inactive; Activity (HaCaT [30]): Not Active; Activity (NHDF [31]): inactive; Activity (Staphylococcus aureus [32]): inactive; Activity (Enterococcus faecium [33]): inactive; Activity (Staphylococcus aureus [34]): inactive; Activity (Enterococcus faecium [35]): inactive |
